Legend:
[1] = tested on: traumatic brain injury; CA3 hippocampus neurons; assay: Traumatic brain injury model (delayed neuronal death), i.c.v. administration; type: in vivo, Wistar rats; settings: for Effect of treatment on neuronal loss in the CA3 hippocampus (ANOVA): 10 μg i.c.v.; for Neuroprotective effect with delayed administration: administered i.c.v. up to 8 hrs after trauma; for Effect on hippocampal neuronal loss: injection of 10 μg into the right cerebral ventricle; for Neuroprotective effect in the traumatic brain injury model: result in words; for Neuronal densities CA3 hippocampus: traumatized right side, 10 μg i.c.v. 15 min after trauma, 3 days after injury, mean ± SD
Experimental: (§1) Contusing device. The contusing device consisted of a stainless steel tube, 40 cm in length, perforated at 1 cm intervals to prevent air compression in the tube. Wistar rats, 230–270 g, were anesthetized with chloral hydrate, 400 mg/kg i.p., a craniotomy over the right hemisphere was made, the device guiding a falling weight onto the footplate resting upon the surface of the dura was placed perpendicular to the surface of the skull, and a force of 380 g×cm produced by a 20 g weight was selected to produce brain contusion. A maximum of 2.5 mm depression of the brain surface was allowed to avoid mechanical puncture of the dura. The center of the footplate was stereotaxically positioned 1.5 mm posterior and 2.5 mm lateral to the bregma. The rats underwent perfusion fixation 3 days after brain injury with a solution containing 4% paraformaldehyde in phosphate buffer.
Intracerebroventricular (i.c.v.) injections: Compounds were administered i.c.v. by means of a Hamilton syringe in a volume of 5–15 μl. Injections were performed over 5 min, 15 min−8 hrs after trauma using the following stereotaxic coordinates: AP=−0.5 mm, L=−2 mm and V=−5.5 in relation to bregma (Swanson, L. W. (1992) Brain Maps: Structure of the Rat Brain, Elsevier, Amsterdam).
(§2) Morphometric analysis in hippocampus. The damage in the hippocampal CA3 subfield was determined stereologically at 5 different rostrocaudal levels extending from 10.21 to 11.21 mm (Swanson, L. W. (1992) Brain Maps: Structure of the Rat Brain, Elsevier, Amsterdam) and throughout its mediolateral axis three days after traumatic injury. To quantitatively assess neuronal loss in the hippocampus, stereological disector technique (Cruz-Orive, L. M. & Weibel, E. R. (1990) Am. J. Physiol. 258, L148–L156) was used to estimate numerical density (NV) of pyramidal neurons. An unbiased counting frame (0.05 mm×0.05 mm; disector height 0.01 mm) and a high-aperture objective (×40) were used for sampling. Normal neurons were identified by the presence of the typical nuclei with clear nucleoplasm and distinct nucleolus surrounded by cytoplasm containing Nissl substance. The border between CA2 and CA3 subfields was considered as the point where the looser arrangement of large pyramidal cells goes into densely packed pyramidal cells of the subfield CA3. An arbitrary line connecting the lateral ends of the dentate granule cell layers was considered a junction between subfields CA3 and CA4.
Dose responses of the neuroprotective effect of the compounds with the formulae 6 and 7 when administered i.c.v. 15 min after trauma to adult Wistar rats were measured. Neuronal densities were determined in the CA3 hippocampal subfield as described in the methods. Densities of CA3 neurons±Standard Deviation (=SED) in 6 stereotactic levels in the left non-traumatized side of vehicle treated rats and the traumatized right side of vehicle treated rats and in rats treated with the compounds with the formulae 6 and 7 were measured and the results listed in table 1 below. In all of the following tables the numbers (“n”) indicate the number of rats per group, where applicable.

[2] = tested on: traumatic brain injury; CA3 hippocampus neurons; assay: Traumatic brain injury model (delayed neuronal death), i.v. administration; type: in vivo, Wistar rats; settings: for Neuronal densities CA3 hippocampus, i.v. administration: mean ± SD
Experimental: as §1
Intravenous injections: Compounds were administered i.v. using a 1 ml syringe attached to a 26 gauge needle. The needle was inserted into the left femoral vein following a small skin incision. Compounds were administered in a volume of 1 ml/kg body weight over 30 sec.
as §2
(P<0.001; n=8 per group).

O=C(O)CN1C(=O)[C@@H](NC(=O)C2(C[C@@H](CCc3ccccc3)C(=O)O)CCCC2)CCc2ccccc21 [Formula 6, (2R)-2-{[1-({[(3S)-1-(carboxymethyl)-2-oxo-2,3,4,5-tetrahydro-1H-1-benzaepin-3-yl]amino}carbonyl)cyclopentyl]methyl}-4-phenylbutanoic acid]
Effect of treatment on neuronal loss in the CA3 hippocampus (ANOVA) [1]: significant protective effect
Neuroprotective effect with delayed administration [1]: still evident
Effect on hippocampal neuronal loss [1]: partially prevented hippocampal neuronal loss
Neuroprotective effect in the traumatic brain injury model [1]: dose-dependent neuroprotective effects
Neuronal densities CA3 hippocampus ([1]; stereotactic level 10.21): 112.5 ± 11.40 cells × 10^3/mm^3
Neuronal densities CA3 hippocampus ([1]; stereotactic level 10.41): 103.75 ± 11.80 cells × 10^3/mm^3
Neuronal densities CA3 hippocampus ([1]; stereotactic level 10.61): 101.75 ± 14.80 cells × 10^3/mm^3
Neuronal densities CA3 hippocampus ([1]; stereotactic level 10.81): 98.50 ± 10.68 cells × 10^3/mm^3
Neuronal densities CA3 hippocampus ([1]; stereotactic level 11.01): 96.75 ± 13.98 cells × 10^3/mm^3
Neuronal densities CA3 hippocampus ([1]; stereotactic level 11.21): 101.75 ± 15.17 cells × 10^3/mm^3

O=C(O)CN1C(=O)[C@@H](NC(=O)C2(C[C@@H](CCc3cccc4ccccc34)C(=O)O)CCCC2)CCc2ccccc21 [Formula 7, (2R)-2-{[1-({[(3S)-1-(carboxymethyl)-2-oxo-2,3,4,5-tetrahydro-1H-1-benzazepin-3-yl]amino)carbonyl)cyclopentyl]methyl}-4-(1-naphthyl)butanoic acid]
Effect of treatment on neuronal loss in the CA3 hippocampus (ANOVA) ([2]; both tested doses (30 and 300 mg/kg i.v.), P<0.001, n=8 per group): significant protective effect
Neuroprotection of 300 mg/kg compared with 30 mg/kg (ANOVA) ([2]; i.v., 300 mg/kg vs 30 mg/kg): significantly better neuroprotection
Effect on hippocampal neuronal loss ([2]; injection of 30 or 300 mg/kg i.v.): partially prevented hippocampal neuronal loss
Neuronal densities CA3 hippocampus, i.v. administration ([2]; stereotactic level 10.21, 30 mg/kg i.v.): 107.50 ± 6.99 cells × 10^3/mm^3
Neuronal densities CA3 hippocampus, i.v. administration ([2]; stereotactic level 10.21, 300 mg/kg i.v.): 126.50 ± 5.53 cells × 10^3/mm^3
Neuronal densities CA3 hippocampus, i.v. administration ([2]; stereotactic level 10.41, 30 mg/kg i.v.): 102.25 ± 7.89 cells × 10^3/mm^3
Neuronal densities CA3 hippocampus, i.v. administration ([2]; stereotactic level 10.41, 300 mg/kg i.v.): 117.75 ± 4.95 cells × 10^3/mm^3
Neuronal densities CA3 hippocampus, i.v. administration ([2]; stereotactic level 10.61, 30 mg/kg i.v.): 100.75 ± 9.91 cells × 10^3/mm^3
Neuronal densities CA3 hippocampus, i.v. administration ([2]; stereotactic level 10.61, 300 mg/kg i.v.): 110.00 ± 7.01 cells × 10^3/mm^3
Neuronal densities CA3 hippocampus, i.v. administration ([2]; stereotactic level 10.81, 30 mg/kg i.v.): 101.75 ± 9.65 cells × 10^3/mm^3
Neuronal densities CA3 hippocampus, i.v. administration ([2]; stereotactic level 10.81, 300 mg/kg i.v.): 106.75 ± 7.48 cells × 10^3/mm^3
Neuronal densities CA3 hippocampus, i.v. administration ([2]; stereotactic level 11.01, 30 mg/kg i.v.): 111.25 ± 7.55 cells × 10^3/mm^3
Neuronal densities CA3 hippocampus, i.v. administration ([2]; stereotactic level 11.01, 300 mg/kg i.v.): 116.50 ± 9.06 cells × 10^3/mm^3
Neuronal densities CA3 hippocampus, i.v. administration ([2]; stereotactic level 11.21, 30 mg/kg i.v.): 117.75 ± 10.11 cells × 10^3/mm^3
Neuronal densities CA3 hippocampus, i.v. administration ([2]; stereotactic level 11.21, 300 mg/kg i.v.): 125.25 ± 5.01 cells × 10^3/mm^3
Effect of treatment on neuronal loss in the CA3 hippocampus (ANOVA) [1]: significant protective effect
Neuroprotective effect with delayed administration [1]: still evident
Effect on hippocampal neuronal loss [1]: partially prevented hippocampal neuronal loss
Neuroprotective effect in the traumatic brain injury model [1]: dose-dependent neuroprotective effects
Neuronal densities CA3 hippocampus ([1]; stereotactic level 10.21): 107.25 ± 15.19 cells × 10^3/mm^3
Neuronal densities CA3 hippocampus ([1]; stereotactic level 10.41): 100.25 ± 14.71 cells × 10^3/mm^3
Neuronal densities CA3 hippocampus ([1]; stereotactic level 10.61): 93.50 ± 16.96 cells × 10^3/mm^3
Neuronal densities CA3 hippocampus ([1]; stereotactic level 10.81): 93.50 ± 12.36 cells × 10^3/mm^3
Neuronal densities CA3 hippocampus ([1]; stereotactic level 11.01): 101.50 ± 18.81 cells × 10^3/mm^3
Neuronal densities CA3 hippocampus ([1]; stereotactic level 11.21): 107.75 ± 16.51 cells × 10^3/mm^3
